According to ChEMBL document CHEMBL1145032, “Effects of heterocyclic aromatic substituents on binding affinities at two distinct sites of somatostatin receptors. Correlation with the electrostatic potential of the substituents” (J Med Chem, 2003):

What was measured:
[1] = target: T1, Somatostatin receptor type 4 (Homo sapiens, UniProt P31391); experiment: Tested for binding affinity at human Somatostatin receptor type 4 using ([3-125I-Tyr11)]-SRIF-14 as the radioligand
[2] = pKHB (hydrogen bond basicity of the heterocycle) was determined
[3] = pKa was determined; type: physicochemical
[4] = target: T1, Somatostatin receptor type 4; experiment: Inhibitory concentration required against human Somatostatin receptor type 4
[5] = target: Somatostatin receptor type 2 (Homo sapiens, UniProt P30874); experiment: Inhibitory concentration required against human Somatostatin receptor type 2
Sequence of Somatostatin receptor type 2 (P30874 whole entry): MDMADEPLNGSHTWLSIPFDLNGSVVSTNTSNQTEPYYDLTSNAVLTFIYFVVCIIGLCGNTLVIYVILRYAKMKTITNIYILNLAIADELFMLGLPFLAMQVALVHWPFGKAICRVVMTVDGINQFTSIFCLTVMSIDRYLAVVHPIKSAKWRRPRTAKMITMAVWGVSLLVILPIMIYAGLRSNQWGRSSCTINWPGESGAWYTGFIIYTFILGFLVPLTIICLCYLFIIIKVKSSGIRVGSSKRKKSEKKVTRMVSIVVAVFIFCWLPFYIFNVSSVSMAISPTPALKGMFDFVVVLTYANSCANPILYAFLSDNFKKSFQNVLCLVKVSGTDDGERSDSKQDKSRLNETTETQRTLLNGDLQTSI

Substance-P receptor = Substance-P receptor (Homo sapiens, UniProt P25103); experiment: Binding affinity against Tachykinin receptor 1
Sequence of Substance-P receptor (P25103 whole entry): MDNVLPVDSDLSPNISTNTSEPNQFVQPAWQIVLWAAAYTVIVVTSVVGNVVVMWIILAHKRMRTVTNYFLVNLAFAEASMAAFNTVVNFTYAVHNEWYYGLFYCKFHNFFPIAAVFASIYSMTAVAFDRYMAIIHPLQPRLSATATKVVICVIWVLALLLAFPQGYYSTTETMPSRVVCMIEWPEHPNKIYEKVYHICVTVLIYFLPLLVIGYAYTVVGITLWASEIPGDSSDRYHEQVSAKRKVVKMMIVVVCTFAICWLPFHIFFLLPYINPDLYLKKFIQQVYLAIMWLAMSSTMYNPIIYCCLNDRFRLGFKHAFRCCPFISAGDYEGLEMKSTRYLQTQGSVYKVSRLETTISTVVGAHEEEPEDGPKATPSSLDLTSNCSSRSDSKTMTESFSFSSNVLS

T1 sequence (P31391 whole entry): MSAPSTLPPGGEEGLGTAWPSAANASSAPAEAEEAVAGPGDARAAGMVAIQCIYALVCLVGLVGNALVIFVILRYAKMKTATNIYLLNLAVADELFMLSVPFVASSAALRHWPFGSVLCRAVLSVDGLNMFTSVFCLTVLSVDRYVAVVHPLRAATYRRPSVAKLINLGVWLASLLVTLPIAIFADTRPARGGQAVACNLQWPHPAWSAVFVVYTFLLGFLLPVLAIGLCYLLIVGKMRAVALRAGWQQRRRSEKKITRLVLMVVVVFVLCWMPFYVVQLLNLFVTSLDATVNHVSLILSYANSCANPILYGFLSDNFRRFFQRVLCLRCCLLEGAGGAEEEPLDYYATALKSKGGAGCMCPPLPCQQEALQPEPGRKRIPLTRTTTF

SMILES | Ki [1] [nM] | pKHB [2] | pKa [3] | IC50 [4] [nM] | IC50 [5] [nM] | Ki (Substance-P receptor) [nM]
NCCCCCOC[C@H]1O[C@@H](OCCc2c[nH]c3ccccc23)[C@H](OCc2ccccc2)[C@@H](OCc2ccccc2)[C@@H]1OCc1cnccn1 | 260 | 1.95 | 0.7 |  |  | 
Cc1ccc(CO[C@H]2[C@H](OCc3ccccc3)[C@@H](OCc3ccccc3)[C@H](OCCc3c[nH]c4ccccc34)O[C@@H]2COCCCCCN)cn1 | 1260 | 1.05 | 6.1 |  |  | 
NCCCCCOC[C@H]1O[C@@H](OCCc2c[nH]c3ccccc23)[C@H](OCc2cnc[nH]2)[C@@H](OCc2ccccc2)[C@@H]1OCc1cccnc1 | 53 |  |  | 53 | 2250 | 
NCCCCCOC[C@@H]1O[C@H](OCCc2c[nH]c3ccccc23)[C@H](OCc2cnc[nH]2)C(OCc2ccccc2)[C@H]1OCCc1cccnc1 (single isomer, unassigned; (+)) |  |  |  | 800 |  | 
NCCCCCOC[C@H]1O[C@@H](OCCc2c[nH]c3ccccc23)[C@H](OCc2ccccc2)[C@@H](OCc2ccccc2)[C@@H]1OCc1c[nH]cn1 | 1040 | 2.03 | 7.2 |  |  | 
NCCCCCOC[C@H]1O[C@@H](OCCc2c[nH]c3ccccc23)[C@H](OCc2ccccc2)[C@@H](OCc2ccccc2)[C@@H]1OCc1ccccc1 | 1650 |  |  |  |  | 150
NCCCCCOC[C@H]1O[C@@H](OCCc2c[nH]c3ccccc23)[C@H](OCc2ccccc2)[C@@H](OCc2ccccc2)[C@@H]1OCc1ccc(F)nc1 | 680 | 0.95 | -0.4 |  |  | 
NCCCCCOC[C@H]1O[C@@H](OCCc2c[nH]c3ccccc23)[C@H](OCc2ccccc2)[C@@H](OCc2ccccc2)[C@@H]1OCc1ccccn1 | 890 | 1.86 | 5.2 |  |  | 
NCCCCCOC[C@@H]1O[C@H](OCCc2c[nH]c3ccccc23)[C@H](OCc2cnc[nH]2)C(OCc2ccccc2)[C@H]1OCc1ccccc1 (single isomer, unassigned; (+)) | 100 |  |  | 100 | 800 | 
CC(=O)NCCCCCOC[C@H]1O[C@@H](OCCc2c[nH]c3ccccc23)[C@H](OCc2ccccc2)[C@@H](OCc2ccccc2)[C@@H]1O |  |  |  |  |  | 27
NCCCCCOC[C@H]1O[C@@H](OCCc2c[nH]c3ccccc23)[C@H](OCc2ccccc2)[C@@H](OCc2ccccc2)[C@@H]1OCc1cccnc1 | 360 | 1.86 | 5.2 |  |  | 
NCCCCCOC[C@H]1O[C@@H](OCCc2c[nH]c3ccccc23)[C@H](OCc2ccccc2)[C@@H](OCc2ccccc2)[C@@H]1OCc1ccncc1 | 570 | 1.86 | 5.2 |  |  | 
NCCCCCOC[C@H]1O[C@@H](OCCc2c[nH]c3ccccc23)[C@H](OCc2ccccc2)[C@@H](OCc2ccccc2)[C@@H]1OCc1ccc(Cl)nc1 | 1200 |  | 0.5 |  |  | 
